Results on seven molecules are retold here after patent US20210002650A1, “COMPOSITIONS AND METHODS FOR TREATING ALZHEIMER'S DISEASE” (University of Virginia Patent Foundation, priority 2019, published 2021).

The subject of data set [1] is primary mouse cortical neurons. In words: AβO-induced neuronal cell cycle re-entry (CCR), cyclin D1/NeuN/MAP2 triple immunofluorescence. The format is cell-based. More on the design: induction of CCR in primary neuron cultures: dose or concentration left out as unconfirmed. Here is the method: Cortical neuron cultures derived from E17/18 wild type C57/BL6 mouse embryos prepared and maintained as described previously. Cultures were maintained for 16-18 days prior to experimental manipulations.
20 μl aliquots were stored at −80° C. until ready to use. To prepare oligomers, an aliquot was dried in a speed vac for 3 hours, solubilized in 1 mM in dimethyl sulfoxide (Sigma, D2650-5X5ML), placed in a water bath sonicator for 5 minutes, and then supplemented with Neurobasal medium (GIBCO/Life Technologies, 21103-049) to yield a final peptide concentration of 100 μM. The solution was then placed on an orbiting rocker at 4° C. for 48 hours, after which it was centrifuged at 14,000×g in a tabletop microcentrifuge for 15 minutes to pellet large aggregates.
All steps were performed at room temperature unless indicated otherwise. Primary mouse cortical neurons grown on #1.5 thickness, 12 mm round glass coverslips were rinsed once with ice-cold phosphate buffered saline (PBS), and then were fixed in 4% paraformaldehyde in PBS for 12 minutes. Following fixation, the cells were rinsed 3 times for 5 minutes each with ice cold PBS, permeabilized for 15 minutes with PBS containing 0.2% Triton X-100 (Fisher, 9002-93-1), and rinsed 3 times for 5 minutes each with PBS. Next, the cells were blocked with PBST (PBS supplemented with 2% bovine serum albumin (BSA; Roche, 03116956001); and 0.1% Tween 20 (Fisher, 9005-64-5) for 1 hour, after which they were labeled overnight with primary antibodies followed by secondary antibodies for 1 hour. Antibodies were diluted into 2% BSA in PBS, and after each antibody incubation step the cells were rinsed 3 times for 5 minutes each with PBS. Finally, the coverslips were rinsed with ultrapure water and mounted onto slides using Fluormount-G (Southern Biotech, 0100-01) containing 1% 1,4-diazabicyclo[2.2.2]octane (Sigma, D27802-25MG), an anti-quenching agent.
(§1) Cultured neurons and brain sections were imaged on either of two microscopes: 1) Nikon Eclipse Ti equipped with a Yokogawa CSU-X1 spinning disk head, 20×0.75 NA CFI Plan Apo, 40×1.3 NA CFI S Fluor and 60×1.4 NA Plan Apo objectives; 405 nm, 488 nm, 561 nm and 640 nm lasers; and a Hamamatsu Flash 4.0 scientific CMOS camera; or 2) EVOS FL imaging system (Invitrogen). Micrographs were captured using either Nikon Elements or EVOS software. CCR-positive cells were counted using the ImageJ cell counter plugin for brain sections (available at an NIH website), and were counted manually using the EVOS microscope for primary neuron cultures. For cultured neurons (FIGS. 1-4, S5 and S2), 4 biological replicates of >300 neurons were counted per condition per experiment.
To test the hypothesis that neuronal CCR is calcium-dependent we first treated primary mouse cortical neurons with BAPTA-AM, a cell-permeant chelator of intracellular calcium, beginning 30 minutes prior to addition of AβOs to the cultures.
Accordingly, primary neuron cultures were treated with MK-801, an NMDAR inhibitor that blocks calcium entry through the channel pore, beginning 30 minutes before AβOs were added. […] Otherwise identical experiments were performed using 6-cyano-7-nitroquinoxaline-2,3-dione (CNQX) to block plasma membrane AMPA receptors (FIG. 7), 2-aminoethoxydiphenyl borate (2-ABP) to block ER-associated IP3 receptors and TRP channels (FIG. 8), or dantrolene to inhibit ER-associated ryanodine receptors (FIG. 8).

The conditions of data set [2]: cited from earlier work.
The subject of the next data set is Tg2576 AD model mice. In words: neuronal CCR in vivo, cyclin D1-positive cortical neurons in brain sections after memantine in drinking water. More on the design: species or system mouse. The note with it: memantine ~30 mg/kg/day in drinking water from 3 weeks until 2 months of age. Here is the method: Brain tissue sections were obtained from mice that were transcardially perfused first with 10 ml of phosphate buffer (PB; 0.1 M sodium phosphate, pH 7.6), followed by 10 ml of 4% paraformaldehyde in PB at a flow rate of 1.5 ml/minute. Next, brains were removed and placed in 4% paraformaldehyde in PB for 24 hours, washed 3 times in PBS, incubated in 30% sucrose overnight, and flash frozen using dry ice. Frozen tissue was stored at −80° C. until ready for sectioning to 40 μm thickness on a Microm HM 505 E cryostat. […]
as §1, with “Micrographs were captured using either Nikon Elements or EVOS software.” left out, “experiment. […]” for “experiment.”

A further data set has as its system CaMKII. In words: phospho-activated versus total CaMKII by western blotting of AβO-treated cortical neurons. Format: cell-based, mouse. The note with it: 10 μM MK-801, 30 minute pre-treatment; 15 minutes after AβO addition. Here is the method: Samples were resolved on 12% SDS polyacrylamide gels, then transferred at 100 V for 1.75 hours onto 0.22 μm pore size nitrocellulose membranes using a Bio-Rad Mini-PROTEAN Tetra Electrophoresis Cell. Following transfer, blots were rinsed once in tris-buffered saline (TBS), blocked for 30-60 minutes in blocking buffer (LI-COR, 927-50000), sequentially incubated in primary antibodies overnight at 4° C. in antibody buffer (1:1 mix of blocking buffer, and TBST: TBS+0.1% Tween-20), then LI-COR infrared-labeled secondary antibodies for 30 minutes. Blots were rinsed 3 times for 5 minutes each using TBST after the primary antibody or TBS after the secondary antibody. Finally, membranes were scanned using a LI-COR Odyssey imaging station.
CaMKII is of particular interest, as it can be activated via calcium influx through NMDAR. We thus tested the hypothesis that AβO-mediated calcium influx through NMDAR activates CaMKII as a mediator of CCR. Again, we treated primary neurons with AβOs with or without a 30 minute MK-801 pre-treatment, and collected the cells at various time points from 0-2 hours after AβO stimulation for western blotting with antibodies to phospho-activated and total CaMKII. […] The AβO-mediated activation of CaMKII necessary for CCR [19] is therefore dependent upon calcium influx through NMDAR.

Where [3] appears, read: 10 μM, 30 minute pre-treatment, 16-18 hours AβOs.

Where a name gives a salt, the structure may show the parent alone.

As to `CC(=O)OCOC(=O)CN(CC(=O)OCOC(C)=O)c1ccccc1OCCOc1ccccc1N(CC(=O)OCOC(C)=O)CC(=O)OCOC(C)=O` [BAPTA-AM, 1,2-Bis(2-aminophenoxy)ethane-N,N,N′,N′-tetraacetic acid tetrakis(acetoxymethyl ester)], in data set [1] (setting [3]), the “AβO-induced neuronal CCR (cyclin D1-positive neurons)” value (“AβO-induced neuronal CCR” below) is reported as “prevented”.

Take `N#Cc1cc2c(cc1[N+](=O)[O-])=NC(=O)C(=O)N=2` [CNQX, 6-cyano-7-nitroquinoxaline-2,3-dione]: the “AβO-induced neuronal CCR” value in data set [1] (setting [3]) was “none of those inhibitors blocked CCR”. `O=C1CN(/N=C/c2ccc(-c3ccc([N+](=O)[O-])cc3)o2)C(O)=N1` [dantrolene]: the “AβO-induced neuronal CCR” value in data set [1] (20 μM dantrolene to block ryanodine receptors, 18 hours AβOs) was “none of those inhibitors blocked CCR”. On to `NCCOB(c1ccccc1)c1ccccc1` [2-ABP, 2-aminoethoxydiphenyl borate], for which, in data set [1] (50 μM 2-APB to block IP3 receptors, 18 hours AβOs), the “AβO-induced neuronal CCR” value was “none of those inhibitors blocked CCR”. With `CN[C@H](CC(=O)O)C(=O)O` [NMDA], the “induction of CCR in primary neuron cultures” value in data set [1] (30 second shock of NMDA, no AβOs) is recorded as “induces CCR”. On to `CC12CC3CC(C)(C1)CC(N)(C3)C2` [memantine, 1-amino-3,5-dimethyladamantane hydrochloride], for which, in data set [2], the solubility in water result is given as “soluble in water”. Besides, the “neuronal CCR along cortical regions (cyclin D1 immunoreactivity)” value in the data set with Tg2576 AD model mice (Tg2576 mice (untreated 8.8%)) was “reduced to WT levels”; with Tg2576 AD model mice (WT mice), 1.6%. Further, the “AβO-induced neuronal CCR” value in data set [1] (setting [3]) is “prevented AβOs from inducing neuronal CCR”. For the molecule `C[C@]12N[C@H](Cc3ccccc31)c1ccccc12` [MK-801, (1S,9R)-1-methyl-16-azatetracyclo[7.6.1.02,7.010,15]hexadeca-2,4,6,10,12,14-hexaene], the “AβO-mediated transient activation of CaMKII (phosphorylated relative to total CaMKII)” value in the data set with CaMKII is recorded as “activation was prevented”. Also, in data set [1] (setting [3]), the “AβO-induced neuronal CCR” value was “blocked the induction of CCR”.
